Target: T1, human vasopressin V1b receptor (Homo sapiens, UniProt P47901)
T1 construct: expressed in transfected cells; host or cells: CHO-K1 (cell line hV1b-3H2_CHO), membrane preparation
T1 sequence (P47901 1-424): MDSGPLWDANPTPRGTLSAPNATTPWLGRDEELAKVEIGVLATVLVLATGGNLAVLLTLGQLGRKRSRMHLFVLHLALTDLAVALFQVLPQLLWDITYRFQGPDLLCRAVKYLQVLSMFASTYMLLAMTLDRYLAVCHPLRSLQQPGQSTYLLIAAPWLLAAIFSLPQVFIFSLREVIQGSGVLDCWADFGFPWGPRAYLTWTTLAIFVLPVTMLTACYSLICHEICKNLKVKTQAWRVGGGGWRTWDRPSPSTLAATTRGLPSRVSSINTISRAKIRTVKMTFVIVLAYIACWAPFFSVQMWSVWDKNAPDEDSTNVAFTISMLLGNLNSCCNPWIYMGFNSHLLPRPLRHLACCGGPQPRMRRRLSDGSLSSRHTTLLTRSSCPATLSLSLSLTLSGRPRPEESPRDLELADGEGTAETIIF
Assay: Vasopressin V1b receptor binding assay
Conditions: membranes from CHO-K1 cells with stably expressed human V1b receptors; displacement of 1.5 nM 3H-AVP; read-out: V1b receptor affinity (affinity constant Ki)
Summary of the method: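 Membranes expressing human V1b receptor were incubated with radioligand and test compound (2% DMSO final) in 50 mM Tris, 10 mM MgCl2, 0.1% BSA, pH 7.4, for 60 min at room temperature, in triplicate. 1 uM AVP defined nonspecific binding. Bound ligand was separated by filtration and counted by scintillation; Ki came from nonlinear regression.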

With `COc1ccc(S(=O)(=O)n2c(=O)n(C(C(=O)N3CCC(n4ccnc4)CC3)c3ccccc3)c3cc(Cl)ccc32)cc1` (stereo not shown) [Example 88, 5-Chloro-3-[2-(4-imidazol-1-ylpiperidin-1-yl)-2-oxo-1-phenylethyl]-1-(4-methoxybenzenesulfonyl)-1,3-dihydrobenzimidazol-2-one] the Ki was 500 to 10000 nM.

For `COc1ccc(S(=O)(=O)n2c(=O)n(C(C(=O)N3CCN(c4ncncn4)CC3)c3ccccc3)c3cc(Cl)ccc32)cc1` (stereo not shown) [Example 89, 5-Chloro-1-(4-methoxybenzenesulfonyl)-3-[2-oxo-1-phenyl-2-(4-[1,3,5]triazin-2-ylpiperazin-1-yl)-ethyl]-1,3-dihydrobenzimidazol-2-one], the Ki was 500 to 10000 nM.

For `COc1ccc(S(=O)(=O)n2c(=O)n(CC(=O)N3CCCC3)c3cc(Cl)ccc32)cc1` [Example 90, 5-Chloro-1-(4-methoxybenzenesulfonyl)-3-(2-oxo-2-pyrrolidin-1-yl-ethyl)-1,3-dihydrobenzimidazol-2-one], the Ki was 500 to 10000 nM.

`CCCN1CCN(C2CCN(C(=O)C(c3ccccc3)n3c(=O)n(S(=O)(=O)c4ccc(OC)cc4)c4ccc(Cl)cc43)C2)CC1` (stereo not shown) [Example 91, 5-Chloro-1-(4-methoxybenzenesulfonyl)-3-{2-oxo-1-phenyl-2-[3-(4-propylpiperazin-1-yl)-pyrrolidin-1-yl]ethyl}-1,3-dihydrobenzimidazol-2-one] showed a Ki of under 100 nM.

`COc1ccc(S(=O)(=O)n2c(=O)n(C(C(=O)N3CCC(c4ccncc4)C3)c3ccccc3)c3cc(Cl)ccc32)cc1` (stereo not shown) [Example 92, 5-Chloro-1-(4-methoxybenzenesulfonyl)-3-[2-oxo-1-phenyl-2-(3-pyridin-4-yl-pyrrolidin-1-yl)ethyl]-1,3-dihydrobenzimidazol-2-one] gave a Ki of 100 to 500 nM.

Work on `COc1ccc(S(=O)(=O)n2c(=O)n(C(C(=O)N3CCCC3C(=O)N(C)C)c3ccccc3)c3cc(Cl)ccc32)cc1` (stereo not shown) [Example 93, 1-{2-[6-Chloro-3-(4-methoxybenzenesulfonyl)-2-oxo-2,3-dihydrobenzimidazol-1-yl]-2-phenylacetyl}pyrrolidine-2-dimethylcarboxamide] yielded a Ki of 100 to 500 nM.

Compound `COc1ccc(S(=O)(=O)n2c(=O)n(C(C(=O)N3CCN(c4cccnc4)CC3)c3ccccc3)c3cc(Cl)ccc32)cc1` (stereo not shown) [Example 94, 5-Chloro-1-(4-methoxybenzenesulfonyl)-3-[2-oxo-1-phenyl-2-(4-pyridin-3-ylpiperazin-1-yl)ethyl]-1,3-dihydrobenzimidazol-2-one] has a Ki of 500 to 10000 nM.

`COc1ccc(S(=O)(=O)n2c(=O)n(CC(=O)N3CCC(N4CCN(C)CC4)CC3)c3cc(Cl)ccc32)cc1` [Example 95, 5-Chloro-1-(4-methoxybenzenesulfonyl)-3-{2-[4-(4-methylpiperazin-1-yl)piperidin-1-yl]-2-oxo-ethyl}-1,3-dihydrobenzimidazol-2-one] gave a Ki of 500 to 10000 nM.

`COc1ccc(S(=O)(=O)n2c(=O)n(C(C(=O)N3CCN(CC4CCCN(C)C4)CC3)c3ccccc3)c3cc(Cl)ccc32)cc1` (stereo not shown) [Example 96, 5-Chloro-1-(4-methoxybenzenesulfonyl)-3-{2-[4-(1-methylpiperidin-3-ylmethyl)piperazin-1-yl]-2-oxo-1-phenylethyl}-1,3-dihydrobenzimidazol-2-one] was tested, and the Ki was 100 to 500 nM.

`COc1ccc(S(=O)(=O)n2c(=O)n(C(C(=O)N(C)C)c3ccccc3)c3cc(Cl)ccc32)cc1` (stereo not shown) [Example 97, 2-[6-Chloro-3-(4-methoxybenzenesulfonyl)-2-oxo-2,3-dihydrobenzimidazol-1-yl]-N,N-dimethyl-2-phenylacetamide] was tested, and the Ki was 500 to 10000 nM.

Work on `COc1ccc(S(=O)(=O)n2c(=O)n(C(C(=O)N3CCN(C)CC3)c3ccccc3)c3cc(Cl)ccc32)cc1` (stereo not shown) [Example 98, 5-Chloro-1-(4-methoxybenzenesulfonyl)-3-[2-(4-methylpiperazin-1-yl)-2-oxo-1-phenylethyl]-1,3-dihydrobenzimidazol-2-one] yielded a Ki of 500 to 10000 nM.

`COc1ccc(S(=O)(=O)n2c(=O)n(C(C(=O)N3CCOCC3)c3ccccc3)c3cc(Cl)ccc32)cc1` (stereo not shown) [Example 99, 5-Chloro-1-(4-methoxybenzenesulfonyl)-3-(2-morpholin-4-yl-2-oxo-1-phenylethyl)-1,3-dihydrobenzimidazol-2-one] gave a Ki of 500 to 10000 nM.

In the case of `COc1ccc(S(=O)(=O)n2c(=O)n(C(C(=O)NCc3ccccc3)c3ccccc3)c3cc(Cl)ccc32)cc1` (stereo not shown) [Example 100, N-Benzyl-2-[6-chloro-3-(4-methoxybenzenesulfonyl)-2-oxo-2,3-dihydrobenzimidazol-1-yl]-2-phenylacetamide], the Ki is reported as 500 to 10000 nM.

`COc1ccc(S(=O)(=O)n2c(=O)n(C(C(=O)N3CCCCC3)c3ccccc3)c3cc(Cl)ccc32)cc1` (stereo not shown) [Example 101, 5-Chloro-1-(4-methoxybenzenesulfonyl)-3-(2-oxo-1-phenyl-2-piperidin-1-ylethyl)-1,3-dihydrobenzimidazol-2-one] gave a Ki of 500 to 10000 nM.

In the case of `COc1ccc(S(=O)(=O)n2c(=O)n(C(C(=O)N3CCCC3)c3ccccc3)c3cc(Cl)ccc32)cc1` (stereo not shown) [Example 102, 5-Chloro-1-(4-methoxybenzenesulfonyl)-3-(2-oxo-1-phenyl-2-pyrrolidin-1-ylethyl)-1,3-dihydrobenzimidazol-2-one], the Ki is reported as 100 to 500 nM.

`COc1ccc(S(=O)(=O)n2c(=O)n(C(C(=O)Nc3ccccc3)c3ccccc3)c3cc(Cl)ccc32)cc1` (stereo not shown) [Example 103, 2-[6-Chloro-3-(4-methoxybenzenesulfonyl)-2-oxo-2,3-dihydrobenzimidazol-1-yl]-2,N-diphenylacetamide] gave a Ki of 500 to 10000 nM.

In the case of `CCN(CC)C(=O)C(c1ccccc1)n1c(=O)n(S(=O)(=O)c2ccc(OC)cc2)c2ccc(Cl)cc21` (stereo not shown) [Example 104, 2-[6-Chloro-3-(4-methoxybenzenesulfonyl)-2-oxo-2,3-dihydrobenzimidazol-1-yl]-N,N-diethyl-2-phenylacetamide], the Ki is reported as 500 to 10000 nM.

Compound `COc1ccc(S(=O)(=O)n2c(=O)n(C(C(=O)N3CCN(c4ccccc4)CC3)c3ccccc3)c3cc(Cl)ccc32)cc1` (stereo not shown) [Example 105, 5-Chloro-1-(4-methoxybenzenesulfonyl)-3-[2-oxo-1-phenyl-2-(4-phenylpiperazin-1-yl)ethyl]-1,3-dihydrobenzimidazol-2-one] has a Ki of 500 to 10000 nM.

Compound `COc1ccc(S(=O)(=O)n2c(=O)n(C(C(=O)N(C)CCN(C)C)c3ccccc3)c3cc(Cl)ccc32)cc1` (stereo not shown) [Example 106, 2-[6-Chloro-3-(4-methoxybenzenesulfonyl)-2-oxo-2,3-dihydrobenzimidazol-1-yl]-N-(2-dimethylaminoethyl)-N-methyl-2-phenylacetamide] has a Ki of under 100 nM.

Work on `CCCN1CCN(C2CCN(C(=O)C(c3ccccc3)n3c(=O)n(S(=O)(=O)c4ccc(OC)cc4)c4ccccc43)C2)CC1` (stereo not shown) [Example 107, 1-(4-Methoxybenzenesulfonyl)-3-{2-oxo-1-phenyl-2-[3-(4-propylpiperazin-1-yl)-pyrrolidin-1-yl]ethyl}-1,3-dihydrobenzimidazol-2-one] yielded a Ki of under 100 nM.

Compound `CCCN1CCN(C2CCN(C(=O)Cn3c(=O)n(S(=O)(=O)c4ccc(OC)cc4)c4ccc(Cl)cc43)C2)CC1` (stereo not shown) [Example 108, 5-Chloro-1-(4-methoxybenzenesulfonyl)-3-{2-oxo-2-[3-(4-propylpiperazin-1-yl)-pyrrolidin-1-yl]-ethyl}-1,3-dihydrobenzimidazol-2-one] has a Ki of 500 to 10000 nM.

`COc1ccc(S(=O)(=O)n2c(=O)n(C(C(=O)N3CCC[C@H]3c3ncon3)c3ccccc3)c3cc(Cl)ccc32)cc1` (stereo partly drawn) [Example 110, 5-Chloro-1-(4-methoxybenzenesulfonyl)-3-[2-((S)-2-[1,2,4]oxadiazol-3-ylpyrrolidin-1-yl)-2-oxo-1-phenylethyl]-1,3-dihydrobenzimidazol-2-one] was tested, and the Ki was 100 to 500 nM.

With `COc1ccc(S(=O)(=O)n2c(=O)n(C(C(=O)NCc3ccccn3)c3ccccc3)c3cc(Cl)ccc32)cc1` (stereo not shown) [Example 111, 2-[6-Chloro-3-(4-methoxybenzenesulfonyl)-2-oxo-2,3-dihydrobenzimidazol-1-yl]-2-phenyl-N-pyridin-2-ylmethylacetamide] the Ki was 500 to 10000 nM.

`COc1ccc(S(=O)(=O)n2c(=O)n(C(C(=O)NCc3cccnc3)c3ccccc3)c3cc(Cl)ccc32)cc1` (stereo not shown) [Example 112, 2-[6-Chloro-3-(4-methoxybenzenesulfonyl)-2-oxo-2,3-dihydrobenzimidazol-1-yl]-2-phenyl-N-pyridin-3-ylmethylacetamide] showed a Ki of 500 to 10000 nM.

With `COc1ccc(S(=O)(=O)n2c(=O)n(C(C(=O)NCCCN3CCOCC3)c3ccccc3)c3cc(Cl)ccc32)cc1` (stereo not shown) [Example 113, 2-[6-Chloro-3-(4-methoxybenzenesulfonyl)-2-oxo-2,3-dihydrobenzimidazol-1-yl]-N-(3-morpholin-4-yl-propyl)-2-phenyl-acetamide] the Ki was 500 to 10000 nM.

`COc1ccc(S(=O)(=O)n2c(=O)n(C(C(=O)NCCN3CCCCC3)c3ccccc3)c3cc(Cl)ccc32)cc1` (stereo not shown) [Example 114, 2-[6-Chloro-3-(4-methoxybenzenesulfonyl)-2-oxo-2,3-dihydrobenzimidazol-1-yl]-2-phenyl-N-(2-piperidin-1-ylethyl)acetamide] gave a Ki of 500 to 10000 nM.

Compound `COc1ccc(S(=O)(=O)n2c(=O)n(C(C(=O)NCCN3CCN(C)CC3)c3ccccc3)c3cc(Cl)ccc32)cc1` (stereo not shown) [Example 115, 2-[6-Chloro-3-(4-methoxybenzenesulfonyl)-2-oxo-2,3-dihydrobenzimidazol-1-yl]-N-[2-(4-methylpiperazin-1-yl)ethyl]-2-phenylacetamide] has a Ki of 100 to 500 nM.

For `COc1ccc(S(=O)(=O)n2c(=O)n(C(C(=O)NCCc3c[nH]cn3)c3ccccc3)c3cc(Cl)ccc32)cc1` (stereo not shown) [Example 116], the Ki was 500 to 10000 nM.
